From patent US20110053925A1, “Hydroxamate-Based Inhibitors of Deacetylases” (Novartis AG, priority 2009, published 2011)

Biological target: T1, HDAC-1 (Homo sapiens, UniProt Q13547)
T1 construct: made in house; host or cells: Sf9 or Sf21 insect cells (baculovirus, donor vector pFB-GSTX3)
Assay: HDAC Inhibition Assay (purified GST-HDAC protein)
Format: biochemical
Excerpt: The baculovirus donor vector pFB-GSTX3 is used to generate a recombinant baculovirus that can express the HDAC polypeptide. Transfer vectors containing the HDAC coding region are transfected into the DH10Bac cell line (GIBCO) and plated on selective agar plates. Colonies without insertion of the fusion sequence into the viral genome (carried by the bacteria) are blue. Single, white colonies are picked and viral DNAs (bacmid) are isolated from the bacteria by standard plasmid purification procedures. Sf9 cells or Sf21 (American Type Culture Collection) cells are then transfected in […] flasks with the viral DNA using Cellfectin reagent.
Virus-containing media is collected from the transfected cell culture and used for infection to increase its titer. Virus-containing media obtained after two rounds of infection is used for large-scale protein expression. For large-scale protein expression 100 cm^2 round tissue culture plates are seeded with 5×10^7 cells/plate and infected with 1 mL of virus-containing media (at an approximately MOI of 5). After 3 days, the cells are scraped off the plate and centrifuged at 500 rpm for 5 minutes. Cell pellets from 10-20, 100 cm^2 plates, are re-suspended in 50 mL of ice-cold lysis buffer (25 mM tris-HCl, pH 7.5, 2 mM EDTA, 1% NP-40, 1 mM DTT, 1 mM P MSF). The cells are stirred on ice for 15 minutes and then centrifuged at 5,000 rpms for 20 minutes.
The centrifuged cell lysate is loaded onto a 2 mL glutathione-sepharose column (Pharmacia) and is washed thrice with 10 mL of 25 mM tris-HCl, pH 7.5, 2 mM EDTA, 1 mM DTT, 200 mM NaCl. The GST-tagged proteins are then eluted by 10 applications (1 mL each) of 25 mM tris-HCl, pH 7.5, 10 mM reduced-glutathione, 100 mM NaCl, 1 mM DTT, 10% glycerol and stored at −70° C.
HDAC assays with purified GST-HDAC protein are carried out in a final volume of 30 μL containing 15 ng of GST-HDAC protein, 20 mM tris-HCl, pH 7.5, 1 mM MnCl2, 10 mM MgCl2, 1 mM DTT, 3 μg/mL poly(Glu,Tyr) 4:1, 1% DMSO, 2.0 μM ATP (γ-[^33P]-ATP 0.1 μCi). The activity is assayed in the presence or absence of inhibitors. […] Subsequently, […] of the reaction mixture are transferred onto EMMOBILON-PVDF membrane (Millipore) previously soaked for 5 minutes with methanol, rinsed with water, then soaked for 5 minutes with 0.5% H3PO4 and mounted on vacuum manifold with disconnected vacuum source. After spotting all samples, a vacuum is connected and each well rinsed with 200 μL 0.5% H3PO4. Membranes are removed and washed four times on a shaker with 1.0% H3PO4, once with ethanol. Membranes are counted after drying at ambient temperature, mounting in Packard TopCount 96-well frame, and addition of 10 μL/well of MICROSCINT™ (Packard).
• Input: 3×4 μL stopped assay on IMMOBILON membrane, not washed • Background (3 wells): assay with H2O instead of enzyme • Positive control (4 wells): 3% DMSO instead of compound • Bath control (1 well): no reaction mix
In each experiment, the actual inhibition by reference compound is used for normalization of IC50 values to the basis of an average value of the reference inhibitor:
Normalized IC50=measured IC50 average ref. IC50/measured ref. IC50

T1 sequence (Q13547 whole entry, species assumed): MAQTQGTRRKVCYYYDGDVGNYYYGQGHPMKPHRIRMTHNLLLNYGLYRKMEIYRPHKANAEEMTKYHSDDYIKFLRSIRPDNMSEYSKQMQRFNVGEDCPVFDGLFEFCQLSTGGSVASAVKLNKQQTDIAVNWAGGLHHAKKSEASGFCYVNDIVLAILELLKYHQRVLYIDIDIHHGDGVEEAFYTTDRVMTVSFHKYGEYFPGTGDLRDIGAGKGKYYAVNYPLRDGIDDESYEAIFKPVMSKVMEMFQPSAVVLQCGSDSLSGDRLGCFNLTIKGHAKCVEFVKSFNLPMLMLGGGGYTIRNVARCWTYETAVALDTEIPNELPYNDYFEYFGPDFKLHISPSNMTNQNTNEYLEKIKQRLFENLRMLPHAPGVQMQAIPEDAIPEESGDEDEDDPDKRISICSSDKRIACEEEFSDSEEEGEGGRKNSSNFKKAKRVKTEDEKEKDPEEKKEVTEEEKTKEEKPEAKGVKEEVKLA

SMILES | IC50
O=C(CCc1ccc(CN2CCCC(c3c(-c4ccccc4)[nH]c4ccccc34)C2)cc1)NO (centres unmarked) [Compound 16, N-Hydroxy-3-{4-[3-(2-phenyl-1H-indol-3-yl)-piperidin-1-ylmethyl]-phenyl}-propionamide] | 2.2 nM
CC1(C)c2[nH]c3ccccc3c2CCN1Cc1ccc(/C=C/C(=O)NO)cc1 [Compound 22, (E)-3-[4-(1,1-Dimethyl-1,3,4,9-tetrahydro-beta-carbolin-2-ylmethyl)-phenyl]-N-hydroxy-acrylamide] | 150 nM
O=C(/C=C/c1ccc(CN2CCOC(c3nc(-c4ccccc4)no3)C2)cc1)NO (centres unmarked) [Compound 25, (E)-N-Hydroxy-3-{4-[2-(3-phenyl-[1,2,4]oxadiazol-5-yl)-morpholin-4-ylmethyl]-phenyl}-acrylamide] | 39 nM
O=C(/C=C/c1ccc(CN2CCN(Cc3ccccc3)CC2)cc1)NO [Compound 26, (E)-3-[4-(4-Benzyl-piperazin-1-ylmethyl)-phenyl]-N-hydroxy-acrylamide] | 100 nM
O=C(/C=C/c1ccc(CN2CCN(Cc3ccc(Br)cc3)CC2)cc1)NO [Compound 27, (E)-3-{4-[4-(4-Bromo-benzyl)-piperazin-1-ylmethyl]-phenyl}-N-hydroxy-acrylamide] | 130 nM
CCOC(=O)N1CCN(Cc2ccc(/C=C/C(=O)NO)cc2)CC1 [Compound 28, 4-[4-((E)-2-Hydroxycarbamoyl-vinyl)-benzyl]-piperazine-1-carboxylic acid ethyl ester] | 170 nM
O=C(/C=C/c1ccc(CN2CCN(C(=O)OCc3ccccc3)CC2)cc1)NO [Compound 29, 4-[4-((E)-2-Hydroxycarbamoyl-vinyl)-benzyl]-piperazine-1-carboxylic acid benzyl ester] | 140 nM
Cn1c(N2CCN(Cc3ccc(/C=C/C(=O)NO)cc3)CC2)cccc1=O [Compound 30, (E)-N-Hydroxy-3-{4-[4-(1-methyl-6-oxo-1,6-dihydro-pyridin-2-yl)-piperazin-1-ylmethyl]-phenyl}-acrylamide] | 170 nM
O=C(/C=C/c1ccc(CN2CCN(c3nc4ccccc4n3C(=O)c3ccccc3)CC2)cc1)NO [Compound 31, (E)-3-{4-[4-(1-Benzoyl-1H-benzoimidazol-2-yl)-piperazin-1-ylmethyl]-phenyl}-N-hydroxy-acrylamide] | 231 nM
O=C(/C=C/c1ccc(CN2CCCCC2)cc1)NO [Compound 33, (E)-N-Hydroxy-3-(4-piperidin-1-ylmethyl-phenyl)-acrylamide] | 100 nM
O=C(/C=C/c1ccc(CN2CCC3(CC2)OC(=O)Nc2ccccc23)cc1)NO [Compound 34] | 32 nM
O=C(/C=C/c1ccc(CN2CCC(c3cc4ccccc4o3)CC2)cc1)NO [Compound 35, (E)-3-[4-(4-Benzofuran-2-yl-piperidin-1-ylmethyl)-phenyl]-N-hydroxy-acrylamide] | 46 nM
COc1cc(Br)c2oc(C3CCN(Cc4ccc(/C=C/C(=O)NO)cc4)CC3)cc2c1 [Compound 36, (E)-3-{4-[4-(7-Bromo-5-methoxy-benzofuran-2-yl)-piperidin-1-ylmethyl]-phenyl}-N-hydroxy-acrylamide] | 500 nM
O=C(/C=C/c1ccc(CN2CCC3(CC2)NC(=O)N(CC2CC2)C3=O)cc1)NO [Compound 37, (E)-3-[4-(3-Cyclopropylmethyl-2,4-dioxo-1,3,8-triaza-spiro[4.5]dec-8-ylmethyl)-phenyl]-N-hydroxy-acrylamide] | < 430 nM
O=C(/C=C/c1ccc(CN2CCC3(CCc4ccccc4O3)CC2)cc1)NO [Compound 38, (E)-N-Hydroxy-3-(4-(spiro[chroman-2,4′-piperidine]-1′-ylmethyl)phenyl)acrylamide] | 110 nM
CS(=O)(=O)N1CC2(CCN(Cc3ccc(/C=C/C(=O)NO)cc3)CC2)c2ccccc21 [Compound 39] | 27 nM
O=C(/C=C/c1ccc(CN2CCC(c3ccc(Cl)cc3CN3CCCC3=O)CC2)cc1)NO [Compound 40, (E)-3-(4-{4-[4-Chloro-2-(2-oxo-pyrrolidin-1-ylmethyl)-phenyl]-piperidin-1-ylmethyl}-phenyl)-N-hydroxy-acrylamide] | 27 nM
O=C(/C=C/c1ccc(CN2CCC(N3CCc4ccccc4C3=O)CC2)cc1)NO [Compound 41, (E)-N-Hydroxy-3-{4-[4-(1-oxo-3,4-dihydro-1H-isoquinolin-2-yl)-piperidin-1-ylmethyl]-phenyl}-acrylamide] | 16 nM
CC(=O)N(C)CC1(c2ccccc2)CCN(Cc2ccc(/C=C/C(=O)NO)cc2)CC1 [Compound 42, (E)-3-(4-{4-[(Acetyl-methyl-amino)-methyl]-4-phenyl-piperidin-1-ylmethyl}-phenyl)-N-hydroxy-acrylamide] | 70 nM
CN1C(=O)C2(CCN(Cc3ccc(/C=C/C(=O)NO)cc3)CC2)c2ccccc21 [Compound 43, (E)-N-Hydroxy-3-(4-((1-methyl-2-oxospiro[indoline-3,4′-piperidine]-1′-yl)methyl)phenyl)acrylamide] | 24 nM

Continued, values first:

IC50 | SMILES
50 nM | O=C(/C=C/c1ccc(CN2CCC(N3CCNC3=O)CC2)cc1)NO [Compound 44, (E)-N-Hydroxy-3-{4-[4-(2-oxo-imidazolidin-1-yl)-piperidin-1-ylmethyl]-phenyl}-acrylamide]
110 nM | O=C(/C=C/c1ccc(CN2CCC(CC(=O)NO)(c3ccc(Cl)cc3)CC2)cc1)NO [Compound 45, (E)-3-{4-[4-(4-Chloro-phenyl)-4-hydroxycarbamoylmethyl-piperidin-1-ylmethyl]-phenyl}-N-hydroxy-acrylamide]
300 nM | O=C(/C=C/c1ccc(CN2CCOCC2)cc1)NO [Compound 47, (E)-N-Hydroxy-3-(4-morpholin-4-ylmethyl-phenyl)-acrylamide]
130 nM | O=C(/C=C/c1ccc(CN2CCC3(CC2)OCCO3)cc1)NO [Compound 48, (E)-3-[4-(1,4-Dioxa-8-aza-spiro[4.5]dec-8-ylmethyl)-phenyl]-N-hydroxy-acrylamide]
37 nM | O=C(/C=C/c1ccc(CN2CCC(Cc3ccccc3)CC2)cc1)NO [Compound 49, (E)-3-[4-(4-Benzyl-piperidin-1-ylmethyl)-phenyl]-N-hydroxy-acrylamide]
230 nM | O=C(/C=C/c1ccc(CN2CCN(S(=O)(=O)c3ccccc3)CC2)cc1)NO [Compound 50, (E)-3-[4-(4-Benzenesulfonyl-piperazin-1-ylmethyl)-phenyl]-N-hydroxy-acrylamide]
110 nM | O=C(/C=C/c1ccc(CN2CCN(C(=O)c3ccccc3)CC2)cc1)NO [Compound 51, (E)-3-[4-(4-Benzoyl-piperazin-1-ylmethyl)-phenyl]-N-hydroxy-acrylamide]
350 nM | CCC(=O)N1CCN(Cc2ccc(/C=C/C(=O)NO)cc2)CC1 [Compound 52, (E)-N-Hydroxy-3-[4-(4-propionyl-piperazin-l-ylmethyl)-phenyl]-acrylamide]
160 nM | CC(C)(C)CC(=O)N1CCN(Cc2ccc(/C=C/C(=O)NO)cc2)CC1 [Compound 53, (E)-3-{4-[4-(3,3-Dimethyl-butyryl)-piperazin-1-ylmethyl]-phenyl}-N-hydroxy-acrylamide]
130 nM | O=C(/C=C/c1ccc(CN2CCN(C(=O)C3CCCCC3)CC2)cc1)NO [Compound 54, (E)-3-[4-(4-Cyclohexanecarbonyl-piperazin-1-ylmethyl)-phenyl]-N-hydroxy-acrylamide]
230 nM | Cc1ccc(S(=O)(=O)N2CCN(Cc3ccc(/C=C/C(=O)NO)cc3)CC2)cc1 [Compound 55, (E)-N-Hydroxy-3-{4-[4-(toluene-4-sulfonyl)-piperazin-1-ylmethyl]-phenyl}-acrylamide]
260 nM | Cc1cccc(S(=O)(=O)N2CCN(Cc3ccc(/C=C/C(=O)NO)cc3)CC2)c1 [Compound 56, (E)-N-Hydroxy-3-{4-[4-(toluene-3-sulfonyl)-piperazin-1-ylmethyl]-phenyl}-acrylamide]
